How the values were obtained:
Phakopsora pachyrhizi [1] = test: Soybean leaf disk assay, control of Asian soybean rust; assay type: in vivo; conditions: soybean leaf disks, strain 1×10^8 CFU/mL, azoxystrobin 0.5 ppm
Procedure: For detached-leaf assays performed in the following examples, bacterial strains stored in a freezer (−80° C.) were each streaked onto Luria Bertani (LB) agar (25 g LB broth and 15 g agar per liter of deionized water) in an 8.5-cm diameter plastic plate. A single colony from the plate was picked and placed in 50 ml of either LB liquid broth or a liquid broth consisting of NaCl (5 g), tryptone (10 g), nutrient broth (8 g), CaCl2 (0.14 mM), MgCl2·6H2O (0.2 mM), and MnCl2·4H2O (0.01 mM) per liter of deionized water in a 250-ml flask. Calcium chloride (CaCl2), MgCl2, and MnCl2 were filtered sterilized using 0.22 μm vacuum filter and were then added to NaCl, tryptone, nutrient broth (which were autoclaved together). Cultures were harvested after 48 h by pelleting cells and re-suspending to original volume in sterile H2O. Colony forming units (CFU/mL) were determined using standard dilution plate count method, and plates were inspected for signs of contamination. Sterile distilled water was added to achieve a final concentration needed in detached-leaf or growth chamber strain evaluations.
The susceptible soybean cultivar Williams 82 was used in strain evaluation using the detached-leaf technique (Twizeyimana and Hartman, 2010). […]
Data recorded were numbers of uredinia in 1-cm diameter circle recorded 14 days after inoculation. […]

Phakopsora pachyrhizi [2] = test: Soybean leaf disc assay with wettable powder formulations, control of Asian soybean rust; assay type: in vivo; conditions: soybean leaf discs, 150 μL, azoxystrobin 0.25 ppm as control
Procedure: For the tray drying method, 829 grams of cell paste obtained from a liquid culture of ATP15329 was mixed with 18.24 g of glycerol and 72.95 g of microcel E using a food processor. Half of the cell paste was dried at 40° C. to a water activity of less than 0.30, at which time it contained 3.53E11 CFU/g. The other half was dried at 25° C. and 50% RH to a water activity of less than 0.6, at which time it contained 4.75E11 CFU/g. The dried powder formulation was stored in heat sealed mylar pouches at 4° C.
For the spray drying method, 200 grams of cell paste obtained from a liquid culture of ATP15329 was mixed with 22 g of skim milk powder using an emulsion blender. This material was spray dried at outlet temperature of 70° C., at which time it contained 7.86E10 CFU/g. The dried powder formulation was stored in heat sealed mylar pouches at 4° C.
This evaluation followed the protocol used in Example 5. Briefly, leaf disks were each sprayed with 150 μL of different formulations of the bacterial strain AIP015329, azoxystrobin (0.25 ppm) (fungicide control) on the abaxial surface with 150 μl using a fingertip sprayer (Container & Packaging Supply, Eagle, ID) fitted to a 15 mL conical centrifuge tube. Leaf disks were placed adaxial side down on saturated 20×20 cm filter paper in a plastic container (Blister Box 20×20 cm, Placon, Madison, WI); two filter papers were used per box. Boxes with leaf disks were incubated at room temperature in the dark, 24 hours later, leaf disks in the box were inoculated as described earlier. Inoculated and non-inoculated/not treated controls were added. After inoculation, boxes were maintained and incubated as described in the first-round evaluations.
Data recorded were numbers of uredinia in 1-cm diameter circle recorded 14 days after inoculation. […] Data were analyzed using analysis of variance (ANOVA) in PROC GLM of SAS (version 9.4; SAS Institute Inc., Cary, NC) and significant differences (P<0.05) were observed among treatments (Table 9).

CO/C=C(/C(=O)OC)c1ccccc1Oc1cc(Oc2ccccc2C#N)ncn1 [Azoxystrobin, azoxystrobin]
Disease Control (%) Confirmation (Phakopsora pachyrhizi [1]; confirmation): 95.7 (a) %
Disease Control (%) Primary Screen (Phakopsora pachyrhizi [1]; uredinia counted 14 days after inoculation): 99.8 (a) %
Disease Control (%) Spray dry (Phakopsora pachyrhizi [2]; spray dried formulation of the strain, 14 days after inoculation): 100 (a) %
Disease Control (%) Tray dry Dried at 25° C. (Phakopsora pachyrhizi [2]; tray dried formulation dried at 25° C.): 100 (a) %
Disease Control (%) Tray dry Dried at 40° C. (Phakopsora pachyrhizi [2]; tray dried formulation dried at 40° C.): 100 (a) %

Reference: patent US20240251801A1, “COMPOSITIONS AND METHODS FOR IMPROVING PLANT HEALTH AND CONTROLLING PLANT DISEASE” (AgBiome, Inc., priority 2021, published 2024)
